Experimental data published in US20200270237A1 (priority 2017, published 2020).
Read-outs that look alike come from different tables or passages of the source. Values belong to the compound of their own block, whether it stands above or below them.

Tests used:
[1] = molecular target: Human α2δ-1 Subunit of Cav2.2 Calcium Channel (Homo sapiens, UniProt P54289); assay: biochemical; format: binding
human μ-opioid receptor = human μ-opioid receptor (Homo sapiens, UniProt P35372); assay: biochemical; format: binding
Chain of human μ-opioid receptor (P35372 whole entry): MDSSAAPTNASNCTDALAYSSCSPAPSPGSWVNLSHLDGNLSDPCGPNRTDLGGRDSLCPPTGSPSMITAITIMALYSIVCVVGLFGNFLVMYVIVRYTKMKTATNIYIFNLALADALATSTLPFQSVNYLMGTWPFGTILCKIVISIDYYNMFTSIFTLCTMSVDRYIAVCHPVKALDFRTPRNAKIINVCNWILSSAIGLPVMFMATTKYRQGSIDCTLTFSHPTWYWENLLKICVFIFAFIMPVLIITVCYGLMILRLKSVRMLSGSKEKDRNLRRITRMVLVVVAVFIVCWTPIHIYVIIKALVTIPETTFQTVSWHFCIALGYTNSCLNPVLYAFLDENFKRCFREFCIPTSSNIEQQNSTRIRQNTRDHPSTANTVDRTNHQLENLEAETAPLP

[2] = read-out: Ki (nM) alpha2delta Hum

Chain of Human α2δ-1 Subunit of Cav2.2 Calcium Channel (P54289 25-1103): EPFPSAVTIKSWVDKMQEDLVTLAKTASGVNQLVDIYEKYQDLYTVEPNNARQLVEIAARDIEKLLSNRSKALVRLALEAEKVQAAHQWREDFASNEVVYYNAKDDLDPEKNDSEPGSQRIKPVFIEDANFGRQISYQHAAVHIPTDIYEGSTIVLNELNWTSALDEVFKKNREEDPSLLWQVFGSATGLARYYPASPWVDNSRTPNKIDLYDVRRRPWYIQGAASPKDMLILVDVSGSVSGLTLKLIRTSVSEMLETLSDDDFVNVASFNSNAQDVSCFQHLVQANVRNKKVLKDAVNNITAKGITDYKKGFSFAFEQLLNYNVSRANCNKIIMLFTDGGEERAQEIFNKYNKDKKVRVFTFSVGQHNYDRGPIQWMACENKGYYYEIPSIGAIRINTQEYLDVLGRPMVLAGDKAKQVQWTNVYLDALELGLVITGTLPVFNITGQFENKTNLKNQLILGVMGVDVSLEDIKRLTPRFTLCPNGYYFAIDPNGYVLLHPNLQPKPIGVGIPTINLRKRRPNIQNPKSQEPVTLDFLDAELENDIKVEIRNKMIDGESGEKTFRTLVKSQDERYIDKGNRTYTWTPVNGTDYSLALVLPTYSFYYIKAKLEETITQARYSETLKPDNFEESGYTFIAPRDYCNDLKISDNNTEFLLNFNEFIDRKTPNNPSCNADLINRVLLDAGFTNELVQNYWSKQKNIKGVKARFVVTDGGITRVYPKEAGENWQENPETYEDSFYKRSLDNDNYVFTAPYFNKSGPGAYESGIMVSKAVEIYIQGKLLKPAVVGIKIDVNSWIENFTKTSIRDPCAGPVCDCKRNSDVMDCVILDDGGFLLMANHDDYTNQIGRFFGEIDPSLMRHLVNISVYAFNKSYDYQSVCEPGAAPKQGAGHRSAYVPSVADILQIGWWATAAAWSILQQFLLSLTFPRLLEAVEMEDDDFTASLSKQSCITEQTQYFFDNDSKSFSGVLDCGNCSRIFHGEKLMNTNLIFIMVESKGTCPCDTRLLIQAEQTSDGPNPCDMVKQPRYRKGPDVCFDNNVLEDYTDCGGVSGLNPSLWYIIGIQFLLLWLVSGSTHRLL

Compound: CNCC[C@@H](OCc1cccc(CN2CCC(c3ccccc3)(N(C)C)CC2)c1)c1ccccc1 [Example 26, (R)-N,N-dimethyl-1-(3-((3-(methylamino)-1-phenylpropoxy)methyl)benzyl)-4-phenylpiperidin-4-amine]
Ki [1]: 500 to 3000 nM
Ki (human μ-opioid receptor): < 0.1 µM

Compound: CNCCC(OCc1cccc(CN2CCC(c3ccccc3)(N(C)C)CC2)c1)c1ccccc1 (centres unmarked) [Example 25]
Ki [1]: 500 to 3000 nM
Ki (human μ-opioid receptor): < 0.1 µM

Compound: CNCCC(OCc1cccc(N2CCc3ccccc3C2=O)c1)c1cccs1 (centres unmarked) [Example 32, 2-(3-((3-(Methylamino)-1-(thiophen-2-yl)propoxy)methyl)phenyl)-3,4-dihydroisoquinolin-1(2H)-one]
Ki [1]: 500 to 3000 nM
Ki (human μ-opioid receptor): 0.1 to 0.5 µM

Compound: CNCC[C@H](OCc1cccc(CN2CCC(c3ccccc3)(N(C)C)CC2)c1)c1ccccc1 [Example 27, (S)-N,N-dimethyl-1-(3-((3-(methylamino)-1-phenylpropoxy)methyl)benzyl)-4-phenylpiperidin-4-amine]
Ki [1]: > 3000 nM
Ki (human μ-opioid receptor): < 0.1 µM

Compound: CNCCC(Oc1cccc(C(=O)N2CCC(c3ccccc3)(N(C)C)CC2)c1)c1cccs1 (centres unmarked) [Example 7, (4-(Dimethylamino)-4-phenylpiperidin-1-yl)(3-(3-(methylamino)-1-(thiophen-2-yl)propoxy)phenyl)methanone]
Ki ([1]; Table 1, human α2δ-1 enriched membranes, 15 nM [3H]-Gabapentin, read-out: Ki (nM) alpha2delta Hum): 500 to 3000 nM
Ki ([1]; Table 2 (dual compounds), human α2δ-1 enriched membranes, 15 nM [3H]-Gabapentin, read-out: Ki (nM) alpha2delta Hum): 500 to 3000 nM

Ki [1, 2]: > 3000 nM
Compound: CNCCC(Oc1cccc(C(=O)N2CCN(C)CC2)c1)c1ccccc1 (centres unmarked) [Example 9, (3-(3-(Methylamino)-1-phenylpropoxy)phenyl)(4-methylpiperazin-1-yl)methanone]

Ki [1, 2]: > 3000 nM
Compound: CC[C@@]1(N2CCN(Cc3cccc(CO[C@H](CCNC)c4ccccc4)c3)CC2)CCOC(C)(C)C1 [Example 30, (R)-3-((3-((4-((R)-4-ethyl-2,2-dimethyltetrahydro-2H-pyran-4-yl)piperazin-1-yl)methyl)benzyl)oxy)-N-methyl-3-phenylpropan-1-amine]

Ki [1, 2]: > 3000 nM
Compound: CNCC[C@H](Oc1cccc(CN2CCN([C@]3(C(=O)c4ccccn4)CCOC(C)(C)C3)CC2)c1)c1cccs1 [Example 18, ((R)-2,2-dimethyl-4-(4-(3-((S)-3-(methylamino)-1-(thiophen-2-yl)propoxy)benzyl)piperazin-1-yl)tetrahyrdro-2H-pyran-4-yl)(pyridin-2-yl)methanone]

Ki [1, 2]: 500 to 3000 nM
Compound: CC[C@]1(N2CCN(Cc3cccc(CO[C@H](CCNC)c4ccccc4)c3)CC2)CCOC(C)(C)C1 [Example 31, (R)-3-((3-((4-((S)-4-ethyl-2,2-dimethyltetrahydro-2H-pyran-4-yl)piperazin-1-yl)methyl)benzyl)oxy)-N-methyl-3-phenylpropan-1-amine]

Ki [1, 2]: 500 to 3000 nM
Compound: CNCCC(OCc1cccc(N2CCC(N(C)C)CC2)c1)c1ccccc1 (centres unmarked) [Example 48, N,N-dimethyl-1-(3-((3-(methylamino)-1-phenylpropoxy)methyl)phenyl)piperidin-4-amine]

Ki [1, 2]: 500 to 3000 nM
Compound: CNCC[C@H](Oc1ccc(CN2CCn3cccc3C2=O)cc1)c1cccs1 [Example 53, (S)-2-(4-(3-(methylamino)-1-(thiophen-2-yl)propoxy)benzyl)-3,4-dihydropyrrolo[1,2-a]pyrazin-1(2H)-one]

Ki [1, 2]: > 3000 nM
Ki (human μ-opioid receptor; read-out: MU Ki): > 1 µM
Compound: CNCCC(OCc1cccc(N2CCNc3ccccc32)c1)c1ccccc1 (centres unmarked) [Example 47, 3-((3-(3,4-Dihydroquinoxalin-1(2H)-yl)benzyl)oxy)-N-methyl-3-phenylpropan-1-amine]

Compound: CNCC[C@H](Oc1cccc(CN2CCC(c3cccc(O)c3)(N(C)C)CC2)c1)c1cccs1 [Example 14, (S)-3-(4-(dimethylamino)-1-(3-(3-(methylamino)-1-(thiophen-2-yl)propoxy)benzyl)piperidin-4-yl)phenol]
Ki [1]: 100 to 500 nM

Ki [1, 2]: 500 to 3000 nM
Compound: CNCCC(Oc1cccc(N2CCN(C)CC2)c1)c1cccs1 (centres unmarked) [Example 37, N-methyl-3-(3-(4-methylpiperazin-1-yl)phenoxy)-3-(thiophen-2-yl)propan-1-amine]

Ki [1, 2]: 500 to 3000 nM
Compound: CNCCC(OCc1cccc(N2CCCCC2=O)c1)c1cccs1 (centres unmarked) [Example 39, 1-(3-((3-(Methylamino)-1-(thiophen-2-yl)propoxy)methyl)phenyl)piperidin-2-one]

Ki [1, 2]: 500 to 3000 nM
Compound: CNCCC(OCc1cccc(N2CCCCC2=O)c1)c1ccccc1 (centres unmarked) [Example 38, 1-(3-((3-(Methylamino)-1-phenylpropoxy)methyl)phenyl)piperidin-2-one]

Ki [1, 2]: 500 to 3000 nM
Compound: CNCC[C@@H](OCc1cccc(CN2CCN([C@]3(C(=O)c4ccccn4)CCOC(C)(C)C3)CC2)c1)c1ccccc1 [Example 29, ((R)-2,2-dimethyl-4-(4-(3-(((R)-3-(methylamino)-1-phenylpropoxy)methyl)benzyl)piperazin-1-yl)tetrahydro-2H-pyran-4-yl)(pyridin-2-yl)methanone]
